Test system: Panc02/Luc-GFP-Claudin 18.2 cells
Assay: In vivo inhibitory effect of Gemcitabine combined with CAR T cells on in situ mouse pancreatic cancer
Design: species or system C57BL/6 mice
Procedure: The pancreases of 6-week-old C57BL/6 mice are inoculated with 2×10^5 Panc02/Luc-GFP-Claudin 18.2 cells in situ, and is recorded as Day 0 in the tumor cell inoculation diary.
On the 6th day after tumor inoculation (i.e., Day 6), mouse T cells are taken and constructed according to Example 1 to construct the 8E5-2I-mBBZ CAR T cell line. At the same time, the mice are subjected to in vivo imaging, and the mice are randomly grouped according to the tumor burden of the mice. The main groups are:
Group 1: UTD group, that is, the group administrated only untransfected mouse T cell treatment;
Group 2: CART group, that is, the group administrated only 8E5-2I-mBBZ CAR T cell therapy;
Group 3: Gemcitabine group, that is, the group administrated only Gemcitabine; and
Group 4: Gemcitabine+CART group, that is, the group administrated 8E5-2I-mBBZ CAR T cells combined with Gemcitabine treatment.
On the 6th, 7th, and 8th day (i.e., Day 6, 7, and 8), mice in the Gemcitabine group and Gemcitabine+CART group are administrated 30 mg/kg Gemcitabine for treatment, intraperitoneal administration, once a day. […]

## Cl.Nc1ccn([C@@H]2O[C@H](CO)[C@@H](O)C2(F)F)c(=O)n1 [Gemcitabine, 2′-deoxy-2′, 2′-difluorocytidine hydrochloride]
Day 13, in vivo imaging, FIG. 2, Gemcitabine 30 mg/kg i.p. Day 6-8, 3×10^6 CAR-T cells tail vein Day 9
  tumor burdens compared to the UTD group: significantly decreased
FIG. 3, Gemcitabine+CART compared with the UTD group, P<0.05
  tumor growth (in vivo imaging data): continue to grow

Source: patent US20220152101A1, “CELLULAR IMMUNOTHERAPY COMBINATION” (CARSGEN THERAPEUTICS CO., LTD., priority 2019, published 2022)
